From patent US20110237566A1, “Therapeutic Macrolide Compounds and Their Use” (MERLION PHARMACEUTICALS PTE LTD, priority 2008, published 2011)

Assays:
[1] = Microsomal stability assay; type: in vitro ADME; conditions: human, human liver microsomes, pH 7.4, human liver microsomes, 37° C.; for half-life at 50 μM: read-out: T1/2, 50 μm microsomal stability assay
Protocol: 50 μL test sample (50 mM), 25 μL human liver microsomes (20 mg/ml, BD Gentest, catalog no. 452161), 281 μL potassium phosphate buffer (100 mM, pH 7.4), 5 μL NaDPH regenerating system, solution B (BD Biosciences, catalog no. 451200), and 114 μL of water were pre-incubated for 5 min at 37° C. The reaction was initiated by the addition of 25 μL NaDPH regenerating system, solution A (BD Biosciences, catalog no. 451220). After an incubation period of 0, 15, 30, and 60 min at 37° C., 100 μL of the reaction mixture was transferred to an eppendorf tube, followed by addition of 100 μL chilled acetonitrile to quench the reaction. The sample was then centrifuged at 14,000 rpm for 5 min. The supernatant was submitted for LCMS analysis.

[2] = system: A549 human alveolar epithelial cell; assay: Growth inhibition (cytotoxicity), A549 assay, Cell Titer Glo; type: cell-based; conditions: A549, 72 h, A549 cells, 72 hour incubation
Protocol: (§1) The cytotoxicity of each of the MC compounds as described herein was evaluated in the following cell types: A549 human alveolar epithelial cell, PC3 human prostate carcinoma cell, COLO205 human colon adenocarcinoma cell, HEPG2 human hepatoma, OVCAR3 human ovary adenocarcinoma cell, and HL60 human acute myelocytic leukemia (AML) cell.
(§2) A549, PC3, COLO205 and HEPG2 cells were cultured in DMEM (Invitrogen Corporation) with 10% fetal bovine serum, whereas OVCAR3 and HL60 were cultured in the same medium but with 20% fetal bovine serum. For cytotoxocoty measurements the cells were seeded in 96 or 384 well tissue culture treated microtitre plates overnight. Compounds were diluted in appropriate buffers and added to the cells the next day. Following a further 72 hour incubation, cell viability was determined using Cell Titer Glo (Promega Corporation) according to the manufacturers' instructions, and the luminescence measured in Luminoskan Ascent (Thermo Fisher Scientific Inc.).

[3] = system: OVCAR3 human ovary adenocarcinoma cell; assay: Growth inhibition (cytotoxicity), OVCAR3 assay, Cell Titer Glo; type: cell-based; conditions: Homo sapiens, OVCAR-3, 72 h, OVCAR3 cells, 72 hour incubation
Protocol: as §1, §2

[4] = system: PC3 human prostate carcinoma cell; assay: Growth inhibition (cytotoxicity), PC3A assay, Cell Titer Glo; type: cell-based; conditions: PC-3, 72 h, PC3 cells, 72 hour incubation
Protocol: as §1, §2

[5] = Stability determination at PBS pH7.2; type: physicochemical; conditions: PBS pH 7.2, pH 7.2, PBS pH7.2, 37° C.; read-out: T1/2, PBS buffer stability assay
Protocol: Around 0.1 mg of the dried sample was placed in a 2-mL vial, added with 1 mL of PBS pH7.2 and then mixed using a Vortex mixer. The mixture was filtered through a 4 mm Nylon filter with 0.2 μm pore size and the filtrate collected in an hplc vial. The vial was placed in an hplc autosampler maintained at 37° C. just before injection (time=0 h). The stability of the sample was calculated by determining the amount left in solution at specific time intervals. This study was carried out in three trials with the buffer solution as a blank.

SMILES	half-life at 50 μM [1]	IC50 [2]	other results
CC[C@H](OC)[C@@H](C)[C@H]1O[C@@H]1C(NCCCN1CCOCC1)C(C)(O)/C=C/C=C(\C)C1OC(=O)C[C@H](O)CC[C@@](C)(O)[C@@H](OC(C)=O)/C=C/[C@@H]1C.O=CO (single isomer, unassigned) [MC-009b]	> 30 min	–	–
CC[C@H](OC)[C@@H](C)[C@H]1O[C@@H]1C1C(Cc2ccccc2)C(=O)OC1(C)/C=C/C=C(\C)C1OC(=O)C[C@H](O)CC[C@@](C)(O)[C@@H](OC(C)=O)/C=C/[C@@H]1C (single isomer, unassigned) [MC-012a]	–	≤ 1000 nM	–
CC[C@H](OC)[C@@H](C)[C@H]1O[C@@H]1C(NCc1ccc(Br)cc1)C(C)(O)/C=C/C=C(\C)C1OC(=O)C[C@H](O)CC[C@@](C)(O)[C@@H](OC(C)=O)/C=C/[C@@H]1C.O=CO (single isomer, unassigned) [MC-014b]	> 30 min	–	–
CC[C@H](OC)[C@@H](C)[C@H]1O[C@@H]1C(NCCc1ccc(Cl)cc1Cl)C(C)(O)/C=C/C=C(\C)C1OC(=O)C[C@H](O)CC[C@@](C)(O)[C@@H](OC(C)=O)/C=C/[C@@H]1C (single isomer, unassigned) [MC-017b]	–	≤ 1000 nM	–
CC[C@H](OC)[C@@H](C)[C@H]1O[C@@H]1C(NCc1c(Cl)cccc1Cl)C(C)(O)/C=C/C=C(\C)C1OC(=O)C[C@H](O)CC[C@@](C)(O)[C@@H](OC(C)=O)/C=C/[C@@H]1C (single isomer, unassigned) [MC-018a]	–	≤ 1000 nM	–
CC[C@H](OC)[C@@H](C)[C@H]1O[C@@H]1C(NCc1cccc(Cl)c1)C(C)(O)/C=C/C=C(\C)C1OC(=O)C[C@H](O)CC[C@@](C)(O)[C@@H](OC(C)=O)/C=C/[C@@H]1C (single isomer, unassigned) [MC-027a]	–	≤ 1000 nM	–
CC[C@H](OC)[C@@H](C)[C@H]1O[C@@H]1C(NCc1ccc2c(c1)OCO2)C(C)(O)/C=C/C=C(\C)C1OC(=O)C[C@H](O)CC[C@@](C)(O)[C@@H](OC(C)=O)/C=C/[C@@H]1C.O=CO (single isomer, unassigned) [MC-030a]	> 30 min	–	IC50 [3]: ≤ 100 nM; IC50 [4]: ≤ 100 nM
CC[C@H](OC)[C@@H](C)[C@H]1O[C@@H]1C(NCc1ccc(N2CCCNCC2)cc1)C(C)(O)/C=C/C=C(\C)C1OC(=O)C[C@H](O)CC[C@@](C)(O)[C@@H](OC(C)=O)/C=C/[C@@H]1C (single isomer, unassigned) [MC-041a]	–	≤ 1000 nM	–
CC[C@H](OC)[C@@H](C)[C@H]1O[C@@H]1C(NCc1ccc2[nH]ccc2c1)C(C)(O)/C=C/C=C(\C)C1OC(=O)C[C@H](O)CC[C@@](C)(O)[C@@H](OC(C)=O)/C=C/[C@@H]1C.O=CO (single isomer, unassigned) [MC-043a]	> 30 min	–	–
CC[C@H](OC)[C@@H](C)[C@H]1O[C@@H]1C(NCc1ccc(NC2CC2)cc1)C(C)(O)/C=C/C=C(\C)C1OC(=O)C[C@H](O)CC[C@@](C)(O)[C@@H](OC(C)=O)/C=C/[C@@H]1C (single isomer, unassigned) [MC-044a]	–	≤ 1000 nM	–
CC[C@H](OC)[C@@H](C)[C@H]1O[C@@H]1C(NCc1ccc(Cl)nc1)C(C)(O)/C=C/C=C(\C)C1OC(=O)C[C@H](O)CC[C@@](C)(O)[C@@H](OC(C)=O)/C=C/[C@@H]1C.O=CO (single isomer, unassigned) [MC-046a]	> 30 min	–	–
CC[C@H](OC)[C@@H](C)[C@H]1O[C@@H]1C(NCc1ccc(C)c(F)c1)C(C)(O)/C=C/C=C(\C)[C@H]1OC(=O)C[C@H](O)CC[C@@](C)(O)[C@@H](OC(C)=O)/C=C/[C@@H]1C.O=CO (stereo in doubt) [MC-031]	> 30 min	–	IC50 [3]: ≤ 100 nM; IC50 [4]: ≤ 100 nM; half-life at 0.1 mg/mL [5]: > 30 min
CC[C@H](OC)[C@@H](C)C1O[C@@H]1C(NCc1ccc(Cl)nc1)C(C)(O)/C=C/C=C(\C)[C@H]1OC(=O)C[C@H](O)CC[C@@](C)(O)[C@@H](OC(C)=O)/C=C/[C@@H]1C (stereo in doubt) [MC-046]	–	–	half-life at 0.1 mg/mL [5]: > 30 min
CC[C@H](OC)[C@@H](C)C1O[C@@H]1C(N(C)Cc1ccc(Cl)cc1)C(C)(O)/C=C/C=C(\C)[C@H]1OC(=O)C[C@H](O)CC[C@@](C)(O)[C@@H](OC(C)=O)/C=C/[C@@H]1C (stereo in doubt) [MC-047]	–	–	half-life at 0.1 mg/mL [5]: > 30 min
CC[C@H](OC)[C@@H](C)[C@H]1O[C@@H]1C(N(CCO)Cc1ccc2ccccc2c1)C(C)(O)/C=C/C=C(\C)[C@H]1OC(=O)C[C@H](O)CCC(C)(O)[C@@H](OC(C)=O)/C=C/[C@@H]1C (stereo in doubt) [MC-051]	–	≤ 1000 nM	–
CC[C@H](OC)[C@@H](C)[C@H]1O[C@@H]1C(N(CCO)Cc1ccc(C(F)(F)F)cc1)C(C)(O)/C=C/C=C(\C)[C@H]1OC(=O)C[C@H](O)CCC(C)(O)[C@@H](OC(C)=O)/C=C/[C@@H]1C (stereo in doubt) [MC-053]	–	≤ 1000 nM	–
CC[C@H](OC)[C@@H](C)[C@H]1O[C@@H]1C(NCc1ccccc1)C(C)(/C=C/C=C(\C)[C@H]1OC(=O)C[C@H](O)CCC(C)(O)[C@@H](OC(C)=O)/C=C/[C@@H]1C)NCc1ccccc1 (some centres unmarked) [MC-001]	–	≤ 1000 nM	–
CC[C@H](OC)[C@@H](C)[C@H]1O[C@@H]1C(NCc1ccc(F)c(F)c1)C(C)(O)/C=C/C=C(\C)[C@H]1OC(=O)C[C@H](O)CC[C@@](C)(O)[C@@H](OC(C)=O)/C=C/[C@@H]1C.O=CO (some centres unmarked) [MC-029]	> 30 min	–	IC50 [3]: ≤ 100 nM; IC50 [4]: ≤ 100 nM
CC[C@H](OC)[C@@H](C)[C@H]1O[C@@H]1C(NCc1ccc2c(c1)OCO2)C(C)(O)/C=C/C=C(\C)C1OC(=O)C[C@H](O)CC[C@@](C)(O)[C@@H](OC(C)=O)/C=C/[C@@H]1C (some centres unmarked) [MC-030]	–	–	half-life at 0.1 mg/mL [5]: > 30 min
CC[C@H](OC)[C@@H](C)[C@H]1O[C@@H]1C(NCc1ccc(Cl)cc1F)C(C)(O)/C=C/C=C(\C)[C@H]1OC(=O)C[C@H](O)CC[C@@](C)(O)[C@@H](OC(C)=O)/C=C/[C@@H]1C.O=CO (some centres unmarked) [MC-032]	> 30 min	–	IC50 [3]: ≤ 100 nM; IC50 [4]: ≤ 100 nM
CC[C@H](OC)[C@@H](C)[C@H]1O[C@@H]1C(NCC1CCCCCC1)C(C)(O)/C=C/C=C(\C)[C@H]1OC(=O)C[C@H](O)CC[C@@](C)(O)[C@@H](OC(C)=O)/C=C/[C@@H]1C.O=CO (some centres unmarked) [MC-034]	–	≤ 1000 nM	half-life at 5 μM ([1]; 5 μm, read-out: T1/2, 5 μm microsomal stability assay): 6.1 min
CC[C@H](OC)[C@@H](C)[C@H]1O[C@@H]1C(NCc1ccc(N2CCOCC2)cc1)C(C)(O)/C=C/C=C(\C)C1OC(=O)C[C@H](O)CC[C@@](C)(O)[C@@H](OC(C)=O)/C=C/[C@@H]1C (some centres unmarked) [MC-037]	–	–	half-life at 0.1 mg/mL [5]: > 30 min
CC[C@H](OC)[C@@H](C)[C@H]1O[C@@H]1C(NCc1ccc(N2CCOCC2)cc1)C(C)(O)/C=C/C=C(\C)C1OC(=O)C[C@H](O)CC[C@@](C)(O)[C@@H](OC(C)=O)/C=C/[C@@H]1C (some centres unmarked) [MC-037d]	> 30 min	–	–
CC[C@H](OC)[C@@H](C)[C@H]1O[C@@H]1C(NCc1ccc(N2CC(C)OC(C)C2)cc1)C(C)(O)/C=C/C=C(\C)C1OC(=O)C[C@H](O)CC[C@@](C)(O)[C@@H](OC(C)=O)/C=C/[C@@H]1C (some centres unmarked) [MC-042c]	–	≤ 1000 nM	–
CC[C@H](OC)[C@@H](C)[C@H]1O[C@@H]1C(NCc1ccc2[nH]ccc2c1)C(C)(O)/C=C/C=C(\C)C1OC(=O)C[C@H](O)CC[C@@](C)(O)[C@@H](OC(C)=O)/C=C/[C@@H]1C (some centres unmarked) [MC-043]	–	–	half-life at 0.1 mg/mL [5]: > 30 min
CC[C@H](OC)[C@@H](C)[C@H]1O[C@@H]1C(NCc1ccc2[nH]ccc2c1)C(C)(O)/C=C/C=C(\C)C1OC(=O)C[C@H](O)CC[C@@](C)(O)[C@@H](OC(C)=O)/C=C/[C@@H]1C (some centres unmarked) [MC-043c]	–	≤ 1000 nM	–
CC[C@H](OC)[C@@H](C)[C@H]1O[C@@H]1C(N(CCCO)Cc1ccc(Cl)cc1)C(C)(O)/C=C/C=C(\C)[C@H]1OC(=O)C[C@H](O)CC[C@@](C)(O)[C@@H](OC(C)=O)/C=C/[C@@H]1C (some centres unmarked) [MC-045]	–	≤ 1000 nM	–
CC[C@H](OC)[C@@H](C)[C@H]1O[C@@H]1C(NS(=O)(=O)c1ccc(F)c(F)c1)C(C)(O)/C=C/C=C(\C)C1OC(=O)C[C@H](O)CCC(C)(O)[C@@H](OC(C)=O)/C=C/[C@@H]1C (some centres unmarked) [MC-58b]	–	≤ 1000 nM	–
